Where a SMILES comes first, the peptide text is derived from it. [ ]: non-standard residue; d: D form.
Tests used:
[1] = tested on: Escherichia coli (ATCC 25922), Staphylococcus aureus (ATCC 25923), Klebsiella pneumoniae (ATCC 10031) and Pseudomonas aeruginosa (ATCC 27853); assay: Radial diffusion assay, four ATCC bacterial strains together; type: cell-based; conditions: Gentamicin 5 μg
Description: The radial diffusion assay (RDA) was carried out as described by Andersen et al. (2010). Briefly, 30 ml of 1/10 Muller-Hinton broth (MHB) supplemented with 1% agarose and 5.0×10^5 CFU/ml S. aureus or E. coli or K. pneumoniae, P. aeruginosa cells was poured into a single-well omnitray (Nunc) and overlaid with a TSP 96-well plate. One hundred μg of each synthesized peptide was tested. The peptides were also tested against Fusarium oxysporum and Verticillium dahliae, for which ⅓ potato dextrose agarose was used. To test the synergistic effect of peptides, each peptide was mixed in equimolar concentrations. Mix1 (met1-12), Mix2 (met3, 4 and 5), Mix3 (met 8, 9 and 10), Mix 4 (met11, 12) and Mix5 (8, 9, 10, 11, 12) were prepared and tested against E. coli and S. aureus. Gentamicin and vancomycin were included as positive controls for bacteria and amphotericin B was used as the control for fungi.
By using rational design techniques, we have designed variants of peptides by incorporating or replacing various amino acids in the original peptides. Thus, we have designed and modified Chain 100, Chain 200 and Chain 300 with tryptophan (W), arginine (R) and lysine (K) at various positions to improve antimicrobial activity (FIGS. 4a-c and 5a-c). In some peptides we have also used other amino acids such as Leucine (L), Cysteine (C), Isoleucine (I), Phenylalanine (F) and Alanine (A). […]

[2] = tested on: Escherichia coli (ATCC 25922); assay: MIC, micro broth dilution assay; type: cell-based
Description: (§1) Minimum inhibition concetrations (MICs) were determined against Escherichia coli (ATCC 25922), Staphylococcus aureus (ATCC 25923), Klebsiella pneumoniae (ATCC 10031) and Pseudomonas aeruginosa (ATCC 27853). Also clinical strains of E. coli, K. pneumoniae, E. cloacae, P. aeruginosa, Serratia marcescens, Proteus mirabilis, S. pneumoniae, Acinetobacter baumannii, A. johnsonii and S. aureus were used for MICs assays. Additionally, clinical strains of yeast including Candida albicans, C. glabrata, C. parapsilosis and C. quillermondiae were used. The susceptibility of these microorganisms to Chain peptides were determined using micro broth dilution assay. Colonies of the respective microorganism from Muller Hinton (MH) agar plates incubated overnight were suspended in MH broth media and final concentration of microorganism was adjusted to 5.0×10^5 cfu/ml. An aliquot of 10 μl of each Chain peptide, or gentamicin, tetracycline as reference antibiotics were added in differing concentrations along with 90 μl of bacterial suspension to 96 well polypropylene plates and incubated at 37° C. for 20 to 24 hours. […] Similarly, antifungal MICs were tested in Potato dextrose broth.

[3] = tested on: Klebsiella pneumoniae (ATCC 10031); assay: MIC, micro broth dilution assay; type: cell-based
Description: as §1

[4] = tested on: Staphylococcus aureus (ATCC 25923); assay: MIC, micro broth dilution assay; type: cell-based
Description: as §1

[5] = tested on: Pseudomonas aeruginosa (ATCC 27853); assay: MIC, micro broth dilution assay; type: cell-based
Description: as §1

[6] = tested on: clinical strains of bacteria and yeasts; assay: MIC, all clinical bacteria and yeasts tested together; type: cell-based; conditions: bacterial strains other than E. coli
Description: Minimum inhibition concetrations (MICs) were determined against Escherichia coli (ATCC 25922), Staphylococcus aureus (ATCC 25923), Klebsiella pneumoniae (ATCC 10031) and Pseudomonas aeruginosa (ATCC 27853). Also clinical strains of E. coli, K. pneumoniae, E. cloacae, P. aeruginosa, Serratia marcescens, Proteus mirabilis, S. pneumoniae, Acinetobacter baumannii, A. johnsonii and S. aureus were used for MICs assays. Additionally, clinical strains of yeast including Candida albicans, C. glabrata, C. parapsilosis and C. quillermondiae were used. The susceptibility of these microorganisms to Chain peptides were determined using micro broth dilution assay. Colonies of the respective microorganism from Muller Hinton (MH) agar plates incubated overnight were suspended in MH broth media and final concentration of microorganism was adjusted to 5.0×10^5 cfu/ml. An aliquot of 10 μl of each Chain peptide, or gentamicin, tetracycline as reference antibiotics were added in differing concentrations along with 90 μl of bacterial suspension to 96 well polypropylene plates and incubated at 37° C. for 20 to 24 hours. Concentrations of Chain peptides and reference antibiotics ranged from 0.125 to 128 μg/ml and the MICs were recorded as the lowest concentration with no visual growth of bacteria. Similarly, antifungal MICs were tested in Potato dextrose broth. […]

MRSA strains = assay: MIC, synergistic activity with Ertapenem (4 μg/ml); type: cell-based, S. aureus; conditions: Ertapenem 4 μg/ml; D-peptide
Description: Peptides Chain 104, Chain 105, Chain 201, Chain 308, Chain 310 were tested against antibiotic-sensitive strains of S. aureus RN4220 and methicillin resistant strains of S. aureus COL (MRSA). Chain peptides comprising of either L- or D-form amino acids were tested against these bacteria, and the D-form peptides were found have better activity compared to L-form (Table 6). Synergistic activity of chain peptides along with Ertapenem (4 μg/ml) was tested to know whether it will influence the activity against MRSA strains. […] Chain 310 has the best antibacterial activity against the MRSA strains with a MIC of 0.06 & 0.03 μg/ml along with Ertapenem (4 μg/ml) for both forms of L and D-peptides (Table 6).

Molecule: Gentamicin [reference compound]
- zone of inhibition, four ATCC strains [1]: 22-24 mm
- Minimum inhibitory concentration, Escherichia coli (ATCC 25922) [2]: 1 µg/mL
- Minimum inhibitory concentration, Klebsiella pneumoniae (ATCC 10031) [3]: 0.25 µg/mL
- Minimum inhibitory concentration, Staphylococcus aureus (ATCC 25923) [4]: 0.25 µg/mL
- Minimum inhibitory concentration, Pseudomonas aeruginosa (ATCC 27853) [5]: 0.25 µg/mL

Molecule: CC(C)C[C@@H](NC(=O)[C@H](N)CCCNC(=N)N)C(=O)N[C@H](CCCCN)C(=O)N[C@H](CCCNC(=N)N)C(=O)N[C@H](Cc1c[nH]c2ccccc12)C(=O)N[C@H](CCCNC(=N)N)C(=O)N[C@H](CC(C)C)C(=O)N[C@H](Cc1ccccc1)C(=O)N[C@H](CCCNC(=N)N)C(=O)N[C@H](CCCCN)C(=O)N[C@H](CCCNC(=N)N)C(=O)O [Chain306D] (H-[dR][dL][dK][dR][dW][dR][dL][dF][dR][dK][dR]-OH)
- activity for the rest of the bacterial strains [6]: > 32 µg/mL

Molecule: CC(C)C[C@@H](NC(=O)[C@@H](CCCCN)NC(=O)[C@@H](CCCCN)NC(=O)[C@@H](Cc1ccccc1)NC(=O)[C@@H](CC(C)C)NC(=O)[C@@H](Cc1c[nH]c2ccccc12)NC(=O)[C@@H](CCCNC(=N)N)NC(=O)[C@@H](Cc1c[nH]c2ccccc12)NC(=O)[C@@H](CCCCN)NC(=O)[C@@H](CCCNC(=N)N)NC(=O)[C@H](N)CCCCN)C(=O)O [Chain310D] (H-[dK][dR][dK][dW][dR][dW][dL][dF][dK][dK][dL]-OH)
- MIC against the MRSA strains along with Ertapenem (MRSA strains): 0.03 µg/mL
